Read-outs that look alike come from different tables or passages of the source.
Key:
[1] = system: Q7 cells (ST HDH Q7/7; immortalized mouse striatal cells); test: Q7 RSL3 challenge cell survival (rescue) assay; format: cell-based; conditions: 18 h, read-out: Q7 RSL3 Survival EC50
In short: (§1)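 Q7 (33° C.) or NHF (37° C.) cells, 3,000/well, attached 5 h, then test compounds at varying final concentrations followed within 15 min by RSL3 (2 micromolar final); 0.3% DMSO. Assay medium identical to growth medium.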

CYP3A4 [2] = biological target: T1, CYP3A4 (Homo sapiens, UniProt P08684); test: CYP450 Inhibition Assay 1 (pooled human liver microsomes, midazolam); format: in vitro ADME; conditions: for IC50: HLM 0.05 mg/mL, midazolam 5 μM, 5 min; for CYP3A4 inhibition, in words: comment on Table 4
T1 construct: from tissue; host or cells: pooled human liver microsomes
T1 sequence (P08684 whole entry): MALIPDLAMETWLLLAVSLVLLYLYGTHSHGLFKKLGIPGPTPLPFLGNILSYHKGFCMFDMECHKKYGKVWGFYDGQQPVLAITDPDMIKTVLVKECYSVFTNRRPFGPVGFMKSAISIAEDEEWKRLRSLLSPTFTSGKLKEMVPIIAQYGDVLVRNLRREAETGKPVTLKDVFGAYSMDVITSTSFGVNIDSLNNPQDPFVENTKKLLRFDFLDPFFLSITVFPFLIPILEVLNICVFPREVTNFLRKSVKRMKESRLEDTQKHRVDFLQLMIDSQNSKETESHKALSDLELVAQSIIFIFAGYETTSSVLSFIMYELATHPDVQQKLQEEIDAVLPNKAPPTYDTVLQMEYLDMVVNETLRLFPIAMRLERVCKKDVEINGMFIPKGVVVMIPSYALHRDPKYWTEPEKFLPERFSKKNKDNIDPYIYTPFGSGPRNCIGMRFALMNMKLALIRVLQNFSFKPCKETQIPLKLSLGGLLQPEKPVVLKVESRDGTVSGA
Description: The CYP450 inhibition assay provides in vitro assessment of the inhibitory potential of the test compounds against cytochrome P450 enzymes. Selective substrates were incubated with pooled human liver microsomes (HLM) as single substrates. All assays employed 100 mM potassium phosphate buffer at pH 7.4.
The assays were performed in a 96-well PCR plate in a final volume of 140 μL at 37° C. Test compounds were evaluated at seven concentrations to obtain IC50 values, with a final concentration of 0.1% DMSO in the incubation (total organic solvent at 1% in the incubation). Reactions were initiated by the addition of NADPH. After the enzyme-specific incubation time had elapsed, an aliquot from that enzyme reaction was quenched in Acetonitrile with 0.2% Formic Acid. Supernatant from the quenched reactions was diluted with an equal volume of water, prior to analysis by LC-MS/MS.
All samples were analyzed on LC-MS/MS using an AB Sciex 6500+ instrument equipped with electrospray ionization source, coupled to a Shimadzu Nexera X2 system. Samples were separated using a Waters UPLC HSS T3, 1.8 μm column, 1×50 mm (catalog #186003535) at a flow rate of 200 μL/min. Injection volume was 2 μL.

[3] = system: normal human fibroblasts (NHF, GM21811); test: NHF GM21811 RSL3 challenge cell survival (rescue) assay; format: cell-based; conditions: Fibroblast, 48 h, read-out: NHF GM21811 RSL3 Survival EC50
In short: as §1

CYP3A4 [4] = biological target: T1, CYP3A4; test: CYP450 Inhibition Assay 2 (pooled human liver microsomes, 5 concentrations); format: in vitro ADME; conditions: Table 3, HLM 0.05 mg protein/mL, 10 min reaction
Description: In an alternative experimental design, test compounds were evaluated at 5 concentrations in a 96 well assay plate. Initial combination with pooled human liver microsomes (0.05 mg protein/mL) was followed by a 5 minute incubation. […] The assay plate was incubated for an additional 30 minutes before the reaction was initiated with the addition of NADPH. After 10 minutes of reaction time, the reaction was quenched and samples were analyzed in a similar manner as described above.

[5] = system: Q7 cells (ST HDH Q7/7; immortalized mouse striatal cells); test: Q7 Cystine Deprivation cell survival (rescue) assay; format: cell-based; conditions: 18 h, read-out: Q7 Cystine Deprivation Survival EC50
In short: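 Cells were seeded at 3,000/well and allowed to attach for 5 h at 33 °C. Wells were then washed twice with PBS and switched to cystine-free DMEM containing FBS, 4 mM L-glutamine, 1 mM pyruvate and 30 mg/L methionine to induce ferroptotic death. Compounds were scored for survival rescue.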

[6] = Q7 cells, RSL3 2 micromolar, Cell Titer Glo
[7] = NHF cells, RSL3 2 micromolar, Cell Titer Glo
[8] = Q7 cells, cystine-free medium, Cell Titer Glo, 50% relative viability vs Vitamin K2 (1 micromolar)

Row | SMILES | EC50 [1, 6] [nM] | IC50 (CYP3A4 [2]; Table 3) [µM] | EC50 [3, 7] [nM] | also measured
1 | CCC1=C(Cc2ccc(C(F)(F)F)c(C#N)n2)C(=O)c2ccc(F)cc2C1=O [Example 81, 6-((3-ethyl-6-fluoro-1,4-dioxo-1,4-dihydronaphthalen-2-yl)methyl)-3-(trifluoromethyl)picolinonitrile] | < 50 | 11 | < 50 | 
2 | CCC1=C(Cc2ccc(C(F)(F)F)cn2)C(=O)c2c(F)ccc(F)c2C1=O [Example 55, 2-ethyl-5,8-difluoro-3-((5-(trifluoromethyl)pyridin-2-yl)methyl)naphthalene-1,4-dione] |  | 3.68 |  | EC50 [1]: < 50 nM; EC50 [3]: < 50 nM
3 | CC1=C(Cc2ccc(C(F)(F)F)c(C#N)n2)C(=O)c2ccc(F)cc2C1=O [Example 70, 6-((6-fluoro-3-methyl-1,4-dioxo-1,4-dihydronaphthalen-2-yl)methyl)-3-(trifluoromethyl)picolinonitrile] | < 50 | 4.14 | < 50 | 
4 | CC1=C(Cc2ccccn2)C(=O)c2ccccc2C1=O [Example 23, 2-methyl-3-(pyridin-2-ylmethyl)naphthalene-1,4-dione] |  | 22.8 |  | IC50 (CYP3A4 [4]): 12.7 µM; EC50 [5, 8]: < 50 nM
5 | CCC1=C(Cc2ccc(C(F)(F)F)c(C#N)n2)C(=O)c2cc(F)cc(F)c2C1=O [Example 86, 6-((3-ethyl-5,7-difluoro-1,4-dioxo-1,4-dihydronaphthalen-2-yl)methyl)-3-(trifluoromethyl)picolinonitrile] | < 50 | 6.66 | < 50 | 
6 | CC1=C(Cc2ccncc2)C(=O)c2ccccc2C1=O [Comparison Compound 2, reference compound] |  |  |  | IC50 (CYP3A4 [2]; Table 4 comparison): 1.07 µM; CYP3A4 inhibition, in words (CYP3A4 [2]): potent CYP3A4 inhibitor
7 | CC1=C(Cc2ccc(C(F)(F)F)c(C#N)n2)C(=O)c2c(F)ccc(F)c2C1=O [Example 79, 6-((5,8-difluoro-3-methyl-1,4-dioxo-1,4-dihydronaphthalen-2-yl)methyl)-3-(trifluoromethyl)picolinonitrile] | < 50 | 2.4 | < 50 | 
8 | CC1=C(Cc2ccc(C(F)(F)F)cn2)C(=O)c2c(ccc(F)c2F)C1=O [Example 128, 5,6-difluoro-2-methyl-3-((5-(trifluoromethyl)pyridin-2-yl)methyl)naphthalene-1,4-dione] | < 50 | 1.3 |  | 
9 | CC1=C(Cc2cccnc2)C(=O)c2ccccc2C1=O [Comparison Compound 1, reference compound] |  |  |  | IC50 (CYP3A4 [2]; Table 4 comparison): 0.421 µM; CYP3A4 inhibition, in words (CYP3A4 [2]): very potent inhibitor of CYP3A4
10 | CCC1=C(Cc2ccc(C(F)(F)F)cn2)C(=O)c2ccccc2C1=O [Example 26, 2-ethyl-3-((5-(trifluoromethyl)pyridin-2-yl)methyl)naphthalene-1,4-dione] | < 50 |  | < 50 | IC50 (CYP3A4 [4]): 14.2 µM; EC50 [5, 8]: < 50 nM
11 | CC1=C(Cc2ccc(C(F)(F)F)cn2)C(=O)c2ccccc2C1=O [Example 1, 2-methyl-3-((5-(trifluoromethyl)pyridin-2-yl)methyl)naphthalene-1,4-dione] | < 50 | 5.78 | < 50 | IC50 (CYP3A4 [4]): 35.7 µM; EC50 [5, 8]: < 50 nM
12 | CCC1=C(Cc2ccc(C(F)(F)F)c(C#N)n2)C(=O)c2c(F)ccc(F)c2C1=O [Example 83, 6-((3-ethyl-5,8-difluoro-1,4-dioxo-1,4-dihydronaphthalen-2-yl)methyl)-3-(trifluoromethyl)picolinonitrile] | < 50 | 2.73 |  | 
13 | [2H]C([2H])([2H])C1=C(Cc2ccc(C(F)(F)F)cn2)C(=O)c2cc(F)cc(F)c2C1=O [Example 57, 5,7-difluoro-3-(methyl-d3)-2-((5-(trifluoromethyl)pyridin-2-yl)methyl)naphthalene-1,4-dione] | < 50 | 1.49 |  | 
14 | N#Cc1nc(CC2=C(C3CC3)C(=O)c3c(F)ccc(F)c3C2=O)ccc1C(F)(F)F [Example 84, 6-((3-cyclopropyl-5,8-difluoro-1,4-dioxo-1,4-dihydronaphthalen-2-yl)methyl)-3-(trifluoromethyl)picolinonitrile] | < 50 | 1.56 | < 50 | 
15 | CC(C)C1=C(Cc2ccc(C(F)(F)F)cn2)C(=O)c2ccccc2C1=O [Example 30, 2-isopropyl-3-((5-(trifluoromethyl)pyridin-2-yl)methyl)naphthalene-1,4-dione] |  |  |  | IC50 (CYP3A4 [4]): 10.3 µM; EC50 [5]: < 50 nM; EC50 [3]: < 50 nM
16 | CC1=C(Cc2ncccc2C(F)(F)F)C(=O)c2ccccc2C1=O [Example 39, 2-methyl-3-((3-(trifluoromethyl)pyridin-2-yl)methyl)naphthalene-1,4-dione] |  |  |  | IC50 at 10 min (CYP3A4 [4]; human, pooled human liver microsomes): ≥ 50 µM; EC50 [5, 8]: < 50 nM

— US20230002324A1, “NAPHTHOQUINONE DERIVATIVES FOR TREATMENT OF OXIDATIVE STRESS DISORDERS” (PTC THERAPEUTICS, INC., priority 2019, published 2023)
